# Experimental data: DBAASP
# Assays:
# Assay in all cases: ≥ marks a high value that may be exact or a test limit, other limits are often not marked, values filed in µg/mL are converted to µM
# [1] = system: Pseudomonas aeruginosa PAO1 H103
# [2] = system: Pseudomonas aeruginosa H1030
# [3] = system: Enterobacter cloacae 218R
# [4] = system: Pseudomonas aeruginosa LES400
# [5] = system: Escherichia coli ESBL 64771
# [6] = system: Enterococcus faecium mic80
# [7] = system: Staphylococcus aureus C623
# [8] = system: Staphylococcus aureus ATCC 25923
# [9] = system: Enterococcus faecalis ATCC 29212
# [10] = system: Klebsiella pneumoniae ESBL 61962
# [11] = system: Enterococcus faecalis f43559
# [12] = system: Pseudomonas aeruginosa 213
# Pseudomonas aeruginosa 9 = system: Pseudomonas aeruginosa 9
# [13] = system: Klebsiella pneumoniae ESBL 63575
# [14] = system: Pseudomonas aeruginosa 198
# [15] = system: Enterococcus faecalis W61950
# [16] = system: Stenotrophomonas maltophilia ATCC 13637
# [17] = system: Escherichia coli ESBL 63103
# [18] = system: Pseudomonas aeruginosa H1027
# [19] = system: Enterococcus faecium t62764
# [20] = system: Staphylococcus aureus ATCC 6538P
# [21] = system: Micrococcus luteus ATCC 10240
# [22] = system: Escherichia coli ATCC 25922
# [23] = system: Klebsiella pneumoniae ATCC 10031
# [24] = system: Staphylococcus aureus TK784
# [25] = system: Staphylococcus epidermidis ATCC 12228
# [26] = system: Bacillus subtilis ATCC 6633
# [27] = system: Pseudomonas aeruginosa ATCC 27853
# [28] = system: Salmonella enterica subsp. enterica serovar Typhimurium ATCC 14028
# [29] = system: Shigella dysenteriae ATCC 9752
# [30] = system: Bacillus subtilis ATCC 6051
# [31] = system: Klebsiella pneumoniae ATCC 13883
# Pseudomonas aeruginosa = system: Pseudomonas aeruginosa
# [32] = system: Acinetobacter baumannii ATCC 19606
# [33] = system: Staphylococcus aureus ATCC 43300
# Klebsiella pneumoniae = system: Klebsiella pneumoniae
# [34] = system: Cryptococcus neoformans ATCC 208821
# [35] = system: Candida albicans ATCC 90028
# Acinetobacter baumannii = system: Acinetobacter baumannii
# [36] = system: Klebsiella pneumoniae ATCC 700603
# [37] = system: Klebsiella pneumoniae ATCC BAA-2146
smiles,measurement,setting,value
N=C(N)NCCC[C@H](NC(=O)[C@H](CCCNC(=N)N)NC(=O)[C@@H](N)Cc1ccccc1)C(=O)N[C@@H](Cc1c[nH]c2ccccc12)C(=O)N[C@@H](Cc1c[nH]c2ccccc12)C(=O)N[C@@H](CCCCN)C(=O)N[C@@H](Cc1c[nH]c2ccccc12)C(=O)N[C@@H](Cc1ccccc1)C(=O)N[C@@H](CCCCN)C(=O)O [FRRWWKWFK],MIC,[1],0.695 µM
same,MIC,[2],11.8 µM
same,MIC,[3],11.8 µM
same,MIC,[4],2.85 µM
same,MIC,[5],2.92 µM
same,MIC,[6],2.92 µM
same,MIC,[7],1.46 µM
same,MIC,[8],0.695 µM
same,MIC,[9],11.8 µM
same,MIC,[10],≥ 46.5 µM
same,MIC,[11],≥ 46.5 µM
same,MIC,[12],2.85 µM
same,MIC,Pseudomonas aeruginosa 9,5.77 µM
same,MIC,[13],11.8 µM
same,MIC,[14],1.46 µM
same,MIC,[15],≥ 93.8 µM
same,MIC,[16],0.417 µM
same,MIC,[17],5.77 µM
same,MIC,[18],0.695 µM
same,MIC,[19],2.92 µM
CC(C)C[C@H](NC(=O)[C@H](CC(C)C)NC(=O)[C@H](CCCCN)NC(=O)[C@H](CCCCN)NC(=O)[C@H](CC(C)C)NC(=O)[C@H](Cc1c[nH]c2ccccc12)NC(=O)[C@H](CCCCN)NC(=O)[C@H](CC(C)C)NC(=O)[C@H](CC(C)C)NC(=O)[C@H](CCCCN)NC(=O)[C@@H](N)CCCCN)C(N)=O [KKLLKWLKKLL],MIC,[20],4.47 µM
same,MIC,[21],4.47 µM
same,MIC,[22],8.86 µM
same,MIC,[23],4.47 µM
same,MIC,[24],2.84 µM
same,MIC,[25],4.47 µM
same,MIC,[26],4.47 µM
same,MIC,[27],17.7 µM
same,MIC,[28],17.7 µM
same,MIC,[29],4.47 µM
CC(C)C[C@H](NC(=O)[C@H](Cc1c[nH]c2ccccc12)NC(=O)[C@H](CCCCN)NC(=O)[C@H](CC(C)C)NC(=O)[C@H](CC(C)C)NC(=O)[C@H](CCCCN)NC(=O)[C@H](CCCCN)NC(=O)[C@H](CC(C)C)NC(=O)[C@H](CC(C)C)NC(=O)[C@@H](N)CCCCN)C(=O)N[C@@H](CCCCN)C(N)=O [KLLKKLLKWLK],MIC,[20],1.42 µM
same,MIC,[21],2.84 µM
same,MIC,[22],1.42 µM
same,MIC,[23],1.42 µM
same,MIC,[24],5.67 µM
same,MIC,[25],1.42 µM
same,MIC,[26],1.42 µM
same,MIC,[27],2.84 µM
same,MIC,[28],1.42 µM
same,MIC,[29],1.42 µM
CC[C@H](C)[C@H](NC(=O)CNC(=O)[C@H](CCCNC(=N)N)NC(=O)[C@H](Cc1ccc(O)cc1)NC(=O)[C@H](C)NC(=O)[C@@H](NC(=O)[C@H](CCCNC(=N)N)NC(=O)[C@H](Cc1ccccc1)NC(=O)[C@H](C)NC(=O)[C@H](Cc1c[nH]c2ccccc12)NC(=O)[C@@H](N)CCCCN)C(C)C)C(=O)N[C@@H](C)C(=O)N[C@@H](Cc1ccc(O)cc1)C(=O)N[C@@H](CCCNC(=N)N)C(=O)N[C@@H](CCCNC(=N)N)C(=O)N[C@@H](C)C(=O)N[C@@H](CCCNC(=N)N)C(N)=O [KWAFRVAYRGIAYRRAR],MIC,[30],0.467 µM
same,MIC,[31],7.47 µM
same,MIC,Pseudomonas aeruginosa,> 7.47 µM
same,MIC,[32],1.87 µM
same,MIC,[22],3.74 µM
same,MIC,[33],7.47 µM
same,MIC,Klebsiella pneumoniae,> 7.47 µM
same,MIC,[34],0.467 µM
same,MIC,[27],> 7.47 µM
same,MIC,[35],7.47 µM
same,MIC,Acinetobacter baumannii,1.87 µM
same,MIC,[36],7.47 µM
same,MIC,[37],7.47 µM
